Experimental data from patent US20260240846A1, “ZAK ALPHA KINASE (MAP3K20) INHIBITORS FOR USE IN THE TREATMENT OF ANEMIA” (UNIVERSIDAD DE MURCIA, priority 2023, published 2026).

Columns and labels:
K562 cells = assay: Erythroid differentiation assay in K562 cells (hemin; hemoglobin accumulation, western blot); assay type: cell-based, human
Description: FIG. 1. ZAKα/P38 signaling pathway is activated in K562 after erythroid differentiation and its inhibition facilitates terminal erythroid differentiation. K562 cells were pre-treated with 0.1 μM nilotinib (Nil) (A, C, D), 1 μM anisomycin (B) and/or the indicated concentrations of the […] CX-5461 for 24 h, and then differentiated with 50 μM hemin for another 24 h. Hemoglobin accumulation (A, B, D) and NLRP1, phosphorylated P38, GATA1, ZAKα and ACTB (A-C) amounts were then evaluated by western blot. Immunoblots are representative of 3 independent experiments. #1, ACTB; #2, GATA1.
FIG. 2. The ZAKα/P38 signaling pathways is activated in K562 after erythroid differentiation. K562 cells were pre-treated with 0.1 μM nilotinib for 24 h and then differentiated with 50 μM hemin for the indicated times. The amounts of NLRP1, GATA1, phosphorylated P38, total ZAKα, phosphorylated ZAKα (Phos-tag) and ACTB were then evaluated by western blot.
FIG. 10. Imatinib and dasatinib promote erythropoiesis in human and zebrafish. (A) K562 cells were pretreated with the indicated concentrations of nilotinib, imatinib or dasatinib for 24 h and then differentiated with 50 μM hemin for 24 h. The amounts of NLRP1, GATA1, phosphorylated P38, total ZAKα and ACTB were then evaluated by western blot. (B) Zebrafish larvae were treated from 1 to 2 dpf with the indicated concentrations of nilotinib, imatinib or dasatinib. Representative images and number of neutrophils in larvae of 2 dpf treated by bath immersion with the indicated concentrations of imatinib and dasatinib. Each dot represents one individual and the mean±SEM for each group is also shown. P values were calculated by one-way ANOVA and Tukey's multiple range test. n.s., non-significant. ***P<0.001; ****P<0.0001.
FIG. 11. Ponatinib and bosutinib promote erythropoiesis in human and zebrafish. (A) K562 cells were pretreated with the indicated concentrations of nilotinib, ponatinib and bosutinib for 24 h and then differentiated with 50 μM hemin for the indicated times. The amounts of NLRP1, total ZAKα, GATA1, phosphorylated P38 and ACTB were then evaluated by western blot. (B) Number of neutrophils in larvae of 2 dpf treated by bath immersion with the indicated concentrations of ponatinib and bosutinib. Each dot represents one individual and the mean±SEM for each group is also shown. P values were calculated by one-way ANOVA and Tukey's multiple range test. n.s., non-significant, *P<0.05. **P<0.01. ***P<0.001.
K562 cells (CRL-3343; American Type Culture Collection) were maintained in RPMI culture medium supplemented with 10% fetal calf serum (FCS), 2 mM Glutamine, and 1% penicillin-streptomycin (Life Technologies). Cells were maintained and subcultured before confluence every 72 h. For differentiation, cells were treated with 50 μM hemin (#16009-13-5, Sigma-Aldrich) in the presence of 0.1% DMSO alone or with the caspase-1 inhibitor VX-765 (100 μM), the tyrosine kinase inhibitor nilotinib (0.1 μM), the RNA polymerase I inhibitor CX-5461 (200 nM, 1 μM and 10 μM) (all from MedChemExpress). Cells were collected at different time points (0, 24, 48 hours post-hemin addition), centrifuged, washed twice with PBS, and stored at −80° C. for further analysis.
Cells were lysed in 50 mM Tris-HCl (pH 7.5), 150 mM NaCl, 1% (w/v) NP-40 and fresh protease inhibitor (1/20, #P8340, Sigma-Aldrich). Protein quantification was performed with the BCA kit using BSA as standard. Cell lysates ([…]) in SDS sample buffer were subjected to electrophoresis on a polyacrylamide gel and transferred to nitrocellulose membranes. The membranes were incubated for 1 h with TTBS containing 5% (w/v) skimmed dried milk powder or 2% (w/v) BSA. The membranes were immunoblotted in the same buffer 16 h at 4° C. with the different primary antibodies diluted 1/1000. The blots were then washed with TTBS and incubated for 1 h at room temperature with secondary HRP-conjugated antibodies diluted 2,500-fold in 5% (w/v) skimmed milk in TTBS. […]

[1] = tested on: bone marrow mononuclear cells of a DBA patient with a RPS19 mutation; assay: Colony assay of BMMCs from a DBA patient in methylcellulose medium; assay type: cell-based, human; details: 2 weeks
Description: FIG. 6. NLRP1 is activated by phosphorylation of the linker domain after activation of ZAKα and pharmacological inhibition of this signaling pathway promotes erythropoiesis in DBA. (A-D) Number of neutrophils (A-C), and caspase-1 activity (D) in 2 dpf larvae obtained by injection of one-cell stage embryos with human NLRP1 (wild type-WT, S107A and S107D) and treated from 1 to 2 dpf by bath immersion with 1 μM nilotinib (B-D). Representative images of neutrophils (arrows) are also shown in C. (E, F) BMMCs from a DBA patient were incubated for 2 weeks in human methylcellulose complete medium at 37° C. in the presence or absence of the indicated concentrations of nilotinib, and colonies were counted using standard morphological criteria. Each dot represents one individual and the mean±SEM for each group is also shown. P values were calculated by one-way ANOVA and Tukey's multiple range test. n.s., non-significant; *P<0.05; **P<0.01; ***P<0.001; ****P<0.0001.
Bone marrow aspirates were collected at the Hospital General Universitario José Maria Morales Meseguer under CEIC approval number EST: 12/16. […] BMMCs were incubated in methylcellulose medium at 37° C. in a 5% CO2-humidified atmosphere in the presence of DMSO or nilotinib (0.01 and 0.1 μM), and colonies were counted at day 9 and 14 using standard morphological criteria.

HSPCs from DBA patients = assay: Colony assay of PBMCs from DBA patients in methylcellulose medium; assay type: cell-based, human; details: 2 weeks, indicated concentrations (FIG. 13A)
Description: FIG. 13. […] PBMCs from DBA patients were incubated for 2 weeks in human methylcellulose complete medium at 37° C. in the presence or absence of the indicated concentrations of nilotinib, imatinib, dasatinib, bosutinib and ponatinib, and the number of erythroid (A) and myeloid (B) colonies counted using standard morphological criteria. Each dot represents one patient and the means±SEM for each group is also shown.

ZAKα = ZAKα (Homo sapiens, UniProt Q9NYL2); details: cited from earlier work
Chain of ZAKα (Q9NYL2 whole entry): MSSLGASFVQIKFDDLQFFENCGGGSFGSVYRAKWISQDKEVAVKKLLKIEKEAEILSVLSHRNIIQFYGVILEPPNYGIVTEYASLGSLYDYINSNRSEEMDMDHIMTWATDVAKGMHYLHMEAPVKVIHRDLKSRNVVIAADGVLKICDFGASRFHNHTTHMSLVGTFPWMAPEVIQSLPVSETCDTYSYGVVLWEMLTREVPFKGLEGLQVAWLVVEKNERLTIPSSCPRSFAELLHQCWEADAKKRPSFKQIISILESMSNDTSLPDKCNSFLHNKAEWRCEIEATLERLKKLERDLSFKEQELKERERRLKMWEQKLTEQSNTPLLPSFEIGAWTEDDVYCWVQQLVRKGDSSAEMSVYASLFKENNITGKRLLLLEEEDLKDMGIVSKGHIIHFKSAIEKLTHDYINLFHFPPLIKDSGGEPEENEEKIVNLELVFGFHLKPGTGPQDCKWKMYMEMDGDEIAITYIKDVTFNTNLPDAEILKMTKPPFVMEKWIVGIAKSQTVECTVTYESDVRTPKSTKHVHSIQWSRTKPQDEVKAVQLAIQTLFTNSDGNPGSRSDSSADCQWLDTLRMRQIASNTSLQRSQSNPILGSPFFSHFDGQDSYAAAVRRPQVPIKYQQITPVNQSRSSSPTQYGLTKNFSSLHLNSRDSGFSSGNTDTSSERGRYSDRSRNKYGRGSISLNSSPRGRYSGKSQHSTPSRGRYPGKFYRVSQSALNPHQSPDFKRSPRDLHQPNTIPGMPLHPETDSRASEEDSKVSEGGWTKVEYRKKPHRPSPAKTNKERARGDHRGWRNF

[2] = K562 cells, 0.1 μM nilotinib 24 h, then 50 μM hemin, western blot

**Q.** What does the source list for `Cc1cn(-c2cc(NC(=O)c3ccc(C)c(Nc4nccc(-c5cccnc5)n4)c3)cc(C(F)(F)F)c2)cn1` [nilotinib]?
**A.** erythroid differentiation of K562 (K562 cells; 0.1 μM nilotinib 24 h, with or without 50 μM hemin 24 h (FIG. 1A)): strongly promoted erythroid differentiation of K562, even in the absence of hemin; haemoglobin accumulation (K562 cells; K562 cells, 0.1 μM nilotinib 24 h, then 50 μM hemin 24 h): increase in haemoglobin accumulation; hemin-induced phosphorylation of ZAKα (K562 cells; K562 cells, 0.1 μM nilotinib 24 h, then 50 μM hemin, Phos-tag western blot): strongly reversed; hemin-induced degradation of GATA1 (K562 cells; [2]): strongly reversed; hemin-induced phosphorylation of P38 (K562 cells; [2]): strongly reversed; expression of GATA1 (K562 cells; K562 cells, 0.1 μM nilotinib (FIGS. 1A and 2)): increased expression of GATA1; accumulation of GATA1 in the presence of CX-5461 (K562 cells; K562 cells, 0.1 μM nilotinib plus CX-5461 24 h, then 50 μM hemin 24 h (FIG. 1C)): able to promote accumulation of GATA1; abundance of ZAK alpha, phosphorylated ZAKα and P38, and NLRP1 (K562 cells; K562 cells, basal conditions, upon hemin-induced erythroid differentiation and upon anisomycin): Alter the abundance; number of erythroid colonies ([1]; nilotinib 0.01 and 0.1 μM (FIG. 6E)): strongly increased; number of myeloid colonies ([1]; nilotinib 0.01 and 0.1 μM (FIG. 6F)): not affected; defective erythropoiesis of HSPCs from DBA patients (erythroid colonies) (HSPCs from DBA patients): alleviated defective erythropoiesis; affinity for ZAKα (ZAKα): high affinity
